How the values were obtained:
IKZF1 = biological target: T1, IKZF1 (Homo sapiens, UniProt Q13422); experiment: IKZF1 Degradation Assay, HiBiT Method; assay type: cell-based; details: NCIH929 cells expressing HiBiT-tagged IKZF1, 6 hours, top concentration 10 μM
T1 construct: endogenously expressing IKZF1 with HiBiT fusion tag via CRISPR
Experimental: Assay 2. IKZF1 Degradation Assay, HiBiT Method
Selected compounds of this disclosure were tested in an IKZF1 degradation assay using the HiBiT Method.
RPMI no-phenol red medium and fetal bovine serum (FBS) were purchased from Gibco (Grand Island, NY, USA). Nano-Glo® HiBiT Lytic Assay System was purchased from Promega (Madison, WI, USA). […] Cell culture flasks and 384-well microplates were acquired from VWR (Radnor, PA, USA).
IKZF1 degradation was determined based on quantification of luminescent signal using Nano-Glo® HiBiT Lytic Assay kit. […] NCIH929 cells expressing HiBiT-tagged IKZF1 were added into 384-well plates in RPMI medium containing 10% FBS and 0.05 mM 2-mercaptoethanol at a cell density of 15000 cells per well. The plates were kept at 37° C. with 5% CO2 for 6 hours. Cells treated in the absence of the test compound were the negative control and wells containing media only were the positive control. After 6-hour incubation, Nano-Glo® HiBiT Lytic Assay reagents were added to the designated wells. Luminescence was acquired on EnVision® Multilabel Reader (PerkinElmer, Santa Clara, CA, USA).

IRAK4 = biological target: T2, IRAK4 (Homo sapiens, UniProt Q9NWZ3); experiment: IRAK4 Degradation Assay, HiBiT Method; assay type: cell-based; details: 293T cells expressing HiBiT-tagged IRAK4, 6 hours
T2 construct: 293Tcells expressing HiBiT-tagged IRAK4 were then added into 384-well plates
T2 sequence (Q9NWZ3 1-460): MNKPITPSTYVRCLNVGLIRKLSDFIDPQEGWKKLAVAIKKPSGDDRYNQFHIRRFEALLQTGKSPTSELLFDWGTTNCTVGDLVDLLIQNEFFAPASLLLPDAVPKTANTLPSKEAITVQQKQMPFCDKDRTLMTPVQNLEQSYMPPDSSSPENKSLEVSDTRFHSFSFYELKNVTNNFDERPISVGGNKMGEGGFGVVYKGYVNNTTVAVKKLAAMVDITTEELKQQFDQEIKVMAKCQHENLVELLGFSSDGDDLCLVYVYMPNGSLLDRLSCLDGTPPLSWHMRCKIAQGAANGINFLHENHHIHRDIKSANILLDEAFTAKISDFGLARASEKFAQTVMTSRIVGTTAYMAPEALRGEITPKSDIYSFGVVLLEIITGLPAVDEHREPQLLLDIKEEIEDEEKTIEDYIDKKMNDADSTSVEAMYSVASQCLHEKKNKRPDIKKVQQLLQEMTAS
Method in brief: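 293T cells with HiBiT knocked in at the C-terminus of endogenous IRAK4, 10,000 per well, treated 6 h at 37 °C with an 11-point half-log series ([…]), in duplicate. Remaining IRAK4 read by Nano-Glo HiBiT lytic luminescence against DMSO-only and media-only controls.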

T1 sequence (Q96SW2 whole entry partner, the tested form may be a part): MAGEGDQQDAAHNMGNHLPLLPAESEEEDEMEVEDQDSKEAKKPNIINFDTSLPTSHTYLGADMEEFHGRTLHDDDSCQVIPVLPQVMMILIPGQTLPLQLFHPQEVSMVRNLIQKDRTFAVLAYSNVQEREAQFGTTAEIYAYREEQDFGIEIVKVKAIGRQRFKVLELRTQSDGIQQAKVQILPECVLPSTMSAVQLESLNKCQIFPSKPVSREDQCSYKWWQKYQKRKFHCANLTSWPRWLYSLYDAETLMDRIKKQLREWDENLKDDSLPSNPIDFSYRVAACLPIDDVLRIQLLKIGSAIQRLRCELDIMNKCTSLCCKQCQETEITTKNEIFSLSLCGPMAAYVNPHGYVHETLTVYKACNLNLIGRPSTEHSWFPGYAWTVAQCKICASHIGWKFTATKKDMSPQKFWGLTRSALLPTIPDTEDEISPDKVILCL
T1 sequence (Q16531 whole entry partner, the tested form may be a part): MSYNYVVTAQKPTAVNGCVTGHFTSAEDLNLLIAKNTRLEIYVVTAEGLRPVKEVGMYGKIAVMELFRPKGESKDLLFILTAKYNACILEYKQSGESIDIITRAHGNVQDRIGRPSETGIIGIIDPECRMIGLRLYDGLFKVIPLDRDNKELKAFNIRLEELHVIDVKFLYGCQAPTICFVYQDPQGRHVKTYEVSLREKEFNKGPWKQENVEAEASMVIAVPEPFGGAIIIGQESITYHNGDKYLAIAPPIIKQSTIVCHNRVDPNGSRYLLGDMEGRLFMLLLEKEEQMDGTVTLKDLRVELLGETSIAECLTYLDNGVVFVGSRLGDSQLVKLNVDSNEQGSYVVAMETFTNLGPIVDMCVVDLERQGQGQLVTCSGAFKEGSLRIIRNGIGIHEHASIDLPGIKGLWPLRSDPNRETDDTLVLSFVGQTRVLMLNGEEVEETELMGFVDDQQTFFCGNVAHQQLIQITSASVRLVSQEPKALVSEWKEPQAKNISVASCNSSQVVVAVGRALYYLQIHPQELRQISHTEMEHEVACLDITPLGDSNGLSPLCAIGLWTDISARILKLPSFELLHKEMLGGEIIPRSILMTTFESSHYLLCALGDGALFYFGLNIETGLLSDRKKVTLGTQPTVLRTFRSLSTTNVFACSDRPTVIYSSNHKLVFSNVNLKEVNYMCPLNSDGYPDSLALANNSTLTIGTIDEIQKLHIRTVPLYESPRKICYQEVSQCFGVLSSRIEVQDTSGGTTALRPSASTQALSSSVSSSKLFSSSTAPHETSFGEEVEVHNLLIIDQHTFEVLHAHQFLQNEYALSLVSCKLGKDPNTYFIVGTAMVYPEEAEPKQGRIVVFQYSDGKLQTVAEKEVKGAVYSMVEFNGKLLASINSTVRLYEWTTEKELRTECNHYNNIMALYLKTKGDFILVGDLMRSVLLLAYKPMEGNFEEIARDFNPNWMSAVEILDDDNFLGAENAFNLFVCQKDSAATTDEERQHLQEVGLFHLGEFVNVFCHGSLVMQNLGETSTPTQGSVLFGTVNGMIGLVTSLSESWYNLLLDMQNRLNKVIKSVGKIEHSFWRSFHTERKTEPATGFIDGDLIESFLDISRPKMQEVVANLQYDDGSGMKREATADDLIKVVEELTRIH
T1 sequence (Q13422 whole entry, the tested form may be a part): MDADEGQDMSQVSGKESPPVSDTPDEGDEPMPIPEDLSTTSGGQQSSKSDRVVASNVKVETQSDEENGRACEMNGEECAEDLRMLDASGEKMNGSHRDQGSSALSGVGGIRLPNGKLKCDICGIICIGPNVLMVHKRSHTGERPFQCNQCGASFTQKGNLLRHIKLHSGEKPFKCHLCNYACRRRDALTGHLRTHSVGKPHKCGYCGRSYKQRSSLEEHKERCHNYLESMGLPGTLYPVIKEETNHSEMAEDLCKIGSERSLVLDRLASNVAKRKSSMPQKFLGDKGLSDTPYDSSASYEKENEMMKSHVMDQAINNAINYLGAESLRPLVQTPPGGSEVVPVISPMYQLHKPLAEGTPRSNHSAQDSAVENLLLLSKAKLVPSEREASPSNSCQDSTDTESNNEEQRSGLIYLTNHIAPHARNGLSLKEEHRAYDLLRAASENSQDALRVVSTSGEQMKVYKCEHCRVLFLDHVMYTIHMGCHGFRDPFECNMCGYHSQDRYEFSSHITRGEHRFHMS

Compound | DC50 (IKZF1) | DC50 (IRAK4)
CC(C)Oc1cc2nc([C@H]3CC[C@H](CN4CCC(c5ccc(OC6CCC(=O)NC6=O)cc5)CC4)CC3)cn2cc1C(=O)Nc1cnn2cccnc12 (stereo partly shown) [Example 50, 2-[4-[[4-[4-[(2,6-dioxo-3-piperidyl)oxy]phenyl]-1-piperidyl]methyl]cyclohexyl]-7-isopropoxy-N-pyrazolo[1,5-a]pyrimidin-3-yl-imidazo[1,2-a]pyridine-6-carboxamide] | > 10 µM | < 0.01 µM
Cc1cnc2c(NC(=O)c3cn4cc([C@H]5CC[C@H](CN6CCC(c7ccc(OC8CCC(=O)NC8=O)cc7)CC6)CC5)nc4cc3OC(C)C)cnn2c1 (stereo partly shown) [Example 52, 2-[4-[[4-[4-[(2,6-dioxo-3-piperidyl)oxy]phenyl]-1-piperidyl]methyl]cyclohexyl]-7-isopropoxy-N-(6-methylpyrazolo[1,5-a]pyrimidin-3-yl)imidazo[1,2-a]pyridine-6-carboxamide] | > 10 µM | < 0.01 µM
CC(C)Oc1cc2nc([C@H]3CC[C@H](CN4CCC(c5cc(F)c(C6CCC(=O)NC6=O)cc5F)C(F)(F)C4)CC3)cn2cc1C(=O)Nc1cnn2cccnc12 (stereo partly shown) [Example 53, 2-[4-[[4-[4-(2,6-dioxo-3-piperidyl)-2,5-difluoro-phenyl]-3,3-difluoro-1-piperidyl]methyl]cyclohexyl]-7-isopropoxy-N-pyrazolo[1,5-a]pyrimidin-3-yl-imidazo[1,2-a]pyridine-6-carboxamide] | > 10 µM | 0.01 to 0.1 µM
CC(C)Oc1cc2nn(C3CCN(C(=O)CN4CCC(c5ccc(NC6CCC(=O)NC6=O)cc5)CC4)CC3)cc2cc1C(=O)Nc1cnn2cccnc12 (stereo not shown) [Example 55, 2-(1-(2-(4-(4-((2,6-dioxopiperidin-3-yl)amino)phenyl)piperidin-1-yl)acetyl)piperidin-4-yl)-6-isopropoxy-N-(pyrazolo[1,5-a]pyrimidin-3-yl)-2H-indazole-5-carboxamide] | > 10 µM | < 0.01 µM
CC(C)Oc1cc2nc(C3CCN(C(=O)CN4CCC(c5ccc(C6CCC(=O)NC6=O)cc5)CC4)CC3)cn2cc1C(=O)Nc1cccc(C(F)F)n1 (stereo not shown) [Example 68, N-[6-(difluoromethyl)-2-pyridyl]-2-[1-[2-[4-[4-(2,6-dioxo-3-piperidyl)phenyl]-1-piperidyl]acetyl]-4-piperidyl]-7-isopropoxy-imidazo[1,2-a]pyridine-6-carboxamide] | > 10 µM | 0.01 to 0.1 µM
CC(C)Oc1cc2nc(C3CCN(C(=O)CC4(O)CCN(c5ccc(NC6CCC(=O)NC6=O)cc5F)CC4)CC3)cn2cc1C(=O)Nc1cccc(C(F)F)n1 (stereo not shown) [Example 69, N-[6-(difluoromethyl)-2-pyridyl]-2-[1-[2-[1-[4-[(2,6-dioxo-3-piperidyl)amino]-2-fluoro-phenyl]-4-hydroxy-4-piperidyl]acetyl]-4-piperidyl]-7-isopropoxy-imidazo[1,2-a]pyridine-6-carboxamide] | > 10 µM | < 0.01 µM
CC(C)Oc1cc2nc(C3CCN(C(=O)CC4(O)CCN(c5cc(F)c(NC6CCC(=O)NC6=O)cc5F)CC4)CC3)cn2cc1C(=O)Nc1cccc(C(F)F)n1 (stereo not shown) [Example 70, N-[6-(difluoromethyl)-2-pyridyl]-2-[1-[2-[1-[4-[(2,6-dioxo-3-piperidyl)amino]-2,5-difluoro-phenyl]-4-hydroxy-4-piperidyl]acetyl]-4-piperidyl]-7-isopropoxy-imidazo[1,2-a]pyridine-6-carboxamide] | > 10 µM | < 0.01 µM
CC(C)Oc1cc2nc(C3CCN(C(=O)CC4(O)CCN(c5ccc(NC6CCC(=O)NC6=O)cc5)CC4)CC3)cn2cc1C(=O)Nc1cccc(C(F)F)n1 (stereo not shown) [Example 71, N-[6-(difluoromethyl)-2-pyridyl]-2-[1-[2-[1-[4-[(2,6-dioxo-3-piperidyl)amino]phenyl]-4-hydroxy-4-piperidyl]acetyl]-4-piperidyl]-7-isopropoxy-imidazo[1,2-a]pyridine-6-carboxamide] | > 10 µM | 0.01 to 0.1 µM
CC(C)Oc1cc2nc(C3CCN(C(=O)CC4(O)CCN(c5ccc(NC6CCC(=O)NC6=O)cc5Cl)CC4)CC3)cn2cc1C(=O)Nc1cccc(C(F)F)n1 (stereo not shown) [Example 73, 2-[1-[2-[1-[2-chloro-4-[(2,6-dioxo-3-piperidyl)amino]phenyl]-4-hydroxy-4-piperidyl]acetyl]-4-piperidyl]-N-[6-(difluoromethyl)-2-pyridyl]-7-isopropoxy-imidazo[1,2-a]pyridine-6-carboxamide] | > 10 µM | < 0.01 µM
CC(C)Oc1cc2nc(C3CCN(C(=O)CC4CCN(c5ncc(NC6CCC(=O)NC6=O)cc5F)CC4)CC3)cn2cc1C(=O)Nc1cccc(C(F)F)n1 (stereo not shown) [Example 81, N-[6-(difluoromethyl)-2-pyridyl]-2-[1-[2-[1-[5-[(2,6-dioxo-3-piperidyl)amino]-3-fluoro-2-pyridyl]-4-piperidyl]acetyl]-4-piperidyl]-7-isopropoxy-imidazo[1,2-a]pyridine-6-carboxamide] | > 10 µM | 0.01 to 0.1 µM
CC(C)Oc1cc2nc(C3CCN(C(=O)CN4CCC(c5ccc(C6CCC(=O)NC6=O)cc5)CC4)CC3)cn2cc1C(=O)Nc1cnn2cccnc12 (stereo not shown) [Example 87, 2-[1-[2-[4-[4-(2,6-dioxo-3-piperidyl)phenyl]-1-piperidyl]acetyl]-4-piperidyl]-7-isopropoxy-N-pyrazolo[1,5-a]pyrimidin-3-yl-imidazo[1,2-a]pyridine-6-carboxamide] | > 10 µM | < 0.01 µM
CC(C)Oc1cc2nc(C3CCN(CC(=O)N4CCC(c5ccc(C6CCC(=O)NC6=O)cc5)CC4)CC3)cn2cc1C(=O)Nc1cnn2cccnc12 (stereo not shown) [Example 96, 2-[1-[2-[4-[4-(2,6-dioxo-3-piperidyl)phenyl]-1-piperidyl]-2-oxo-ethyl]-4-piperidyl]-7-isopropoxy-N-pyrazolo[1,5-a]pyrimidin-3-yl-imidazo[1,2-a]pyridine-6-carboxamide] | > 10 µM | 0.01 to 0.1 µM
CC(C)Oc1cc2nc(C3CCN(CC(=O)N4CCC(c5ccc(C6(F)CCC(=O)NC6=O)cc5)CC4)CC3)cn2cc1C(=O)Nc1cnn2cccnc12 (stereo not shown) [Example 98, 2-[1-[2-[4-[4-(3-fluoro-2,6-dioxo-3-piperidyl)phenyl]-1-piperidyl]-2-oxo-ethyl]-4-piperidyl]-7-isopropoxy-N-pyrazolo[1,5-a]pyrimidin-3-yl-imidazo[1,2-a]pyridine-6-carboxamide] | > 10 µM | 0.01 to 0.1 µM
CC(C)Oc1cc2nc(C3CCN(CC(=O)N4CCC(c5ccc(NC6CCC(=O)NC6=O)cc5)CC4)CC3)cn2cc1C(=O)Nc1cnn2cccnc12 (stereo not shown) [Example 104, 2-[1-[2-[4-[4-[(2,6-dioxo-3-piperidyl)amino]phenyl]-1-piperidyl]-2-oxo-ethyl]-4-piperidyl]-7-isopropoxy-N-pyrazolo[1,5-a]pyrimidin-3-yl-imidazo[1,2-a]pyridine-6-carboxamide] | > 10 µM | < 0.01 µM
CC(C)Oc1cc2nc(C3CCN(CC(=O)N4CCC(c5ccc(NC6CCC(=O)NC6=O)cc5)CC4)CC3)cn2cc1C(=O)Nc1cccc(C(F)F)n1 (stereo not shown) [Example 105, N-[6-(difluoromethyl)-2-pyridyl]-2-[1-[2-[4-[4-[(2,6-dioxo-3-piperidyl)amino]phenyl]-1-piperidyl]-2-oxo-ethyl]-4-piperidyl]-7-isopropoxy-imidazo[1,2-a]pyridine-6-carboxamide] | > 10 µM | 0.01 to 0.1 µM
CC(C)Oc1cc2nc(C3CCN(CC(=O)N4CCC(c5ccc(NC6CCC(=O)NC6=O)cc5)CC4)CC3)cn2cc1C(=O)Nc1ccn(C)n1 (stereo not shown) [Example 108, 2-[1-[2-[4-[4-[(2,6-dioxo-3-piperidyl)amino]phenyl]-1-piperidyl]-2-oxo-ethyl]-4-piperidyl]-7-isopropoxy-N-(1-methylpyrazol-3-yl)imidazo[1,2-a]pyridine-6-carboxamide] | > 10 µM | 0.01 to 0.1 µM
CC(C)Oc1cc2nn([C@H]3CC[C@H](CN4CCC(c5ccc(OC6CCC(=O)NC6=O)cc5)CC4)CC3)cc2cc1C(=O)Nc1cccn(C2CC2)c1=O (stereo partly shown) [Example 113, N-(1-cyclopropyl-2-oxo-1,2-dihydropyridin-3-yl)-2-((1r,4r)-4-((4-(4-((2,6-dioxopiperidin-3-yl)oxy)phenyl)piperidin-1-yl)methyl)cyclohexyl)-6-isopropoxy-2H-indazole-5-carboxamide] | > 10 µM | < 0.01 µM

Reference: patent US20240343733A1, “COMPOUNDS FOR TARGETING DEGRADATION OF IRAK4 PROTEINS” (BIOGEN MA INC., priority 2021, published 2024)
